Common to all, as to test: NADH fluorescence
What all share (assay type): biochemical
What all share (settings): 1 mM NAD+, 50 mM Tris pH 8.0, 150 mM NaCl, 0.1% Triton X-100

In assay [1] the target is T1, Hfd1p^CΔ25 (MBP-Hfd1^CΔ25) (Saccharomyces cerevisiae, UniProt Q04458).
T1 sequence (Q04458 1-507): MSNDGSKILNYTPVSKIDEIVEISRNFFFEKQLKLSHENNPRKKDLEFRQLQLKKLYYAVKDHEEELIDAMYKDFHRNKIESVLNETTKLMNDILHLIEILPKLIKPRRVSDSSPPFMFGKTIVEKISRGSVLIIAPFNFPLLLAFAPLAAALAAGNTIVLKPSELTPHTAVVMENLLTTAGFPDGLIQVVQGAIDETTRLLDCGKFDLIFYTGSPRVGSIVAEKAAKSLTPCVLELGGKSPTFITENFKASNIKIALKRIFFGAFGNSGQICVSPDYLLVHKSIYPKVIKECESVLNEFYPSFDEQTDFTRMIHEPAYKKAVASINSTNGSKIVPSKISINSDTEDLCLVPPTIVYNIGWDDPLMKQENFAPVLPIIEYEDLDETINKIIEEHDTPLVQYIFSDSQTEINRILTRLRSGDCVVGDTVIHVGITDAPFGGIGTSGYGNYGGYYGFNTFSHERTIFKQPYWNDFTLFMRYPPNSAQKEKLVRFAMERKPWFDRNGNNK

The target of another assay is T2, ALDH3A1 (Homo sapiens, UniProt P30838).
T2 sequence (P30838 1-453): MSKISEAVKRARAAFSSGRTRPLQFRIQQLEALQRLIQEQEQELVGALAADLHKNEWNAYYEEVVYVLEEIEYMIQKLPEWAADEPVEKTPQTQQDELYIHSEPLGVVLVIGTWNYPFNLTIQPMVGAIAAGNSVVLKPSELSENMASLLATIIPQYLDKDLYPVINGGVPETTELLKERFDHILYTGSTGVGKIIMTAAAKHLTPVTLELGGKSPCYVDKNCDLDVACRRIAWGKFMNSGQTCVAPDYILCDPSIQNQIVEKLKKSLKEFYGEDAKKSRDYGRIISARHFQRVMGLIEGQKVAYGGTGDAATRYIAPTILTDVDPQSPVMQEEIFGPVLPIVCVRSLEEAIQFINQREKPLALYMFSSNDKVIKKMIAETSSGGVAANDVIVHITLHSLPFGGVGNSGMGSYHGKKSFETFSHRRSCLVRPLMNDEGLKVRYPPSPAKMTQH

For a further assay, the target named is ALDH3A2^CΔ25 (FALDH) (Homo sapiens, UniProt P51648).
ALDH3A2^CΔ25 (FALDH), sequence (P51648 1-460, stated change not applied): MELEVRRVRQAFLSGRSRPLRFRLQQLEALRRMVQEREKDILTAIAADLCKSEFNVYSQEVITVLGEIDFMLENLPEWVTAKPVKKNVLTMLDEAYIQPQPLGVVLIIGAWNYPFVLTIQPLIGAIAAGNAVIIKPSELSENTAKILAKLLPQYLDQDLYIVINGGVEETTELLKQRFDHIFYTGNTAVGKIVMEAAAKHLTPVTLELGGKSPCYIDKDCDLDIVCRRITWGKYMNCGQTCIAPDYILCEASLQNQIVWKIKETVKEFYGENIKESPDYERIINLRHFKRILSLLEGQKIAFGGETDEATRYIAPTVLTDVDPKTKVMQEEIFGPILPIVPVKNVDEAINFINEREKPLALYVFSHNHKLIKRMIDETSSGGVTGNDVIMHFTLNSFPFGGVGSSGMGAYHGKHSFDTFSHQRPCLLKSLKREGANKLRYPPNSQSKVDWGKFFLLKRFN

Here are results for two molecules from article PMC5101133 (Nature biotechnology, 2016).

`O=Cc1ccc(O)cc1` [4-HBz]: the KM result is “WT Hfd1p catalyzes NAD^+-dependent dehydrogenation of 4-HBz” in assay [1]; “Hfd1p and ALDH3A1 show a preference for 4-HBz” on ALDH3A1.

For the molecule `CCCCCCCCCCCCCCCC=O` [hexadecanal], the KM entry was “we observed Hfd1p activity in vitro with hexadecanal, similar to that observed with 4-HBz” in assay [1] and “ALDH3A2 shows a strong substrate preference for hexadecanal over 4-HBz” on ALDH3A2^CΔ25 (FALDH).
